“Also recorded” adds a separate entry of the source. Where two headings read alike, the source gives them in different places. Non-standard residues stand in square brackets, D forms with d. Residues, ends and D or L forms follow the SMILES beside them. pS = N[C@@H](COP(=O)(O)O)C(=O)O
Tests used:
[1] = target: T1, recombinant full-length FMRP (isoform 1) (Homo sapiens, UniProt Q06787); test: In vitro intrinsic protein fluorescence binding assay; details: for Kd: 1 μM FMRP, pH 7.4, 20 °C; for change of fluorescence emission spectrum of FMRP (binding): 500–1000 μM peptide and 1 μM FMRP, 100 mM NaCl, 50 mM Na2PO4 pH 7.4, 2 mM DTT, 20 °C, excitation 287 nm; for co-operativity of binding to dimeric FMRP: fit of binding data to dimer models
T1 construct: containing cDNA for full-length human FMRP; His-SUMO (N, cleaved yes); made in house; host or cells: Escherichia coli BL21 (DE3) Codon Plus
Protocol: Small Ubiquitin-like Modifier (SUMO) fusion construct containing cDNA for full-length human FMRP was generated by gene synthesis (GenScript USA Inc.) and subcloned into a pET SUMO vector (Invitrogen). […] The pET SUMO–FMRP construct was transformed into Escherichia coli BL21 (DE3) Codon Plus cells and grown at 37 °C in Lennox broth medium. Protein expression was induced with 0.5 mM isopropyl-β-D-thiogalactopyranoside when optical density reached ~0.6, followed by 18 h of additional growth at 16 °C. Cells were harvested by centrifugation and pellets stored at −20 °C. In order to purify SUMO–FMRP, thawed pellets were resuspended in lysis buffer [50 mM Tris, pH 8.0, 500 mM NaCl, 20 mM imidazole, 10% glycerol, 250 mM arginine, 5 mM benzamidine, and 2 mM dithiothreitol (DTT)], supplemented with DNAse 1 and cOmplete™ Protease Inhibitor Cocktail (Sigma-Aldrich). After cell lysis and centrifugation, the filtered supernatant was loaded onto a 20 ml NiNTA column equilibrated in the same lysis buffer. The column was extensively washed with 20 column volumes (CV) of the same buffer supplemented with 100 mM imidazole. Elution of SUMO-fusion FMRP was performed using 100–500 mM imidazole gradient, and protein-containing fractions were combined and a 6× His tagged Ulp protease was added. Cleavage of the His-SUMO tag was performed overnight in a cold room (7 °C) while dialyzing in 4 L of 50 mM Tris, pH 8.0, 500 mM NaCl, 50 mM imidazole, 10% glycerol, 250 mM arginine, 5 mM benzamidine, and 2 mM DTT. Complete cleavage of the SUMO tag by Ulp was confirmed by SDS-PAGE and the protein of interest was separated from the Ulp protease and SUMO tag by passing the cleavage reaction over a second NiNTA column. Flow-through and wash fractions containing protein of interest were combined and then loaded onto a Superdex 200 gel filtration column pre-equilibrated with the same lysis buffer.
The eluted purified proteins were analyzed by both SDS-PAGE and mass spectrometry, and the combined fractions were dialyzed three times in 5 L of Fluorescence Binding Buffer (100 mM NaCl, 50 mM Na2PO4 pH 7.4, 2 mM DTT). After filtering through a 0.22 μm GV Durapore Centrifugal Filter Unit (Millipore), FMRP concentration was determined by absorbance at 280 nm using a molar extinction coefficient of 48,360 M^−1 cm^−1, and the protein was used for binding studies with Kv1.2 C-terminal peptides.
All measurements were carried out in the Fluorescence Binding Buffer at 20 °C using a PTI Quanta Master 80 Spectrofluorometer (HORIBA Scientific) by monitoring intrinsic protein fluorescence with an excitation wavelength of 287 nm. Prior to performing a binding titration for any of the peptides, a full emission spectrum (300–450 nm) of the peptide:FMRP complex was compared to that of apo-FMRP. Differences in the spectrum of the complex (500–1000 μM peptide and 1 μM FMRP) and apo-FMRP at the same concentration (i.e., fluorescence quenching, enhancement or shifts of the emission maximum) indicated binding. For each of these peptides, binding measurements were performed by adding aliquots of saturated 1 µM FMRP:peptide complex (titration solution) to 400 μL of 1 μM apo-FMRP solution as described by Wells and Di Cera. Briefly, at each titration step, a volume vD was removed from the cuvette containing the apo-FMRP and replaced by an equal volume of the titration solution (1 μM FMRP: 200–500 μM peptide complex). As a result, the concentration of FMRP (1 μM) and total volume of solution in the cuvette, V = 400 μL, remained constant while the concentration of the peptide at the ith titration step, [peptide]i, was increased, and given by
[peptide]i = [peptide]0^i.D^i+[peptide]∞^i.(1 − D^i),
where, [peptide]0 was the initial peptide concentration in the cuvette, [peptide]∞ was the peptide concentration in the titration solution, and D was the dilution factor, D = (V − vD)/V. […]

[2] = tested on: PNs, Fmr1-KO cerebellar slices; test: Spontaneous firing of PNs, cell-attached, Fmr1-KO; format: cell-based, mouse; details: 10 μM, co-applied with NBQX (10 μM); Fmr1-KO compared with WT
[3] = tested on: PNs, WT and Fmr1-KO cerebellar slices; format: cell-based, mouse
[4] = tested on: Kv1.2–FMRP interaction, cerebellar homogenates; test: Co-IP of Kv1.2 with FMRP (anti-FMRP antibody), peptide blocking; format: binding; details: WT mouse cerebellar homogenates; 250 μM peptide added prior to anti-FMRP antibody; immunoblot; at least in triplicate
Protocol: Whole cerebellums from WT and Fmr1 KO mice were homogenized in ice-cold Pull-Down buffer (1% Lubrol, 50 mM Tris–HCl, pH 7.4, 10 nM Na-orthovanadate, 30 mM Na-pyrophosphate, 50 mM NaF, 20 μm ZnCl2, and 0.25 mM PMSF, with the addition of protease inhibitor cocktail) using a Potter-Elvehjem grinding chamber (VWR). Samples were then centrifuged at 5000g for 20 min and 500 μL of supernatants were transferred into 1.5 ml Eppendorf tubes. 1:100 dilutions of anti-FMRP (Abcam 17722), anti-Kv1.2 (K14/16; Neuromab), anti-Kv1.2 ext-c (extracellular; Alomone labs), anti-Kv1.2 N-term (NBP1-42802; Novus), or anti-GAPDH (GAPDH-71.1; 1:80,000; Sigma-Aldrich) antibodies were added to the homogenate and incubated at 4 °C under continuous agitation for 2 h. A total 30 μL of a 1:1 mixture of pre-washed protein A and protein G magnabeads (Genscript) was then added and the samples were incubated under the same conditions for another 2 h. Beads were washed 4 times with PBS-Tween (0.2% Tween w/v) and then centrifuged at 3000g for 1 min. A sample was kept to verify total protein input. Protein was disassociated from the beads with the addition of 30 μL of 2× loading buffer (4% SDS, 20% glycerol w/v, 0.1 M dithiothreitol, 100 mM Tris–HCl, pH 6.8) then submitting the samples to 3 min at 95 °C. […] Bands were quantified as previously described using the AlphaEase SA software. […]

BC–PN synapse, WT = test: sIPSCs from PNs, paired BC–PN recording, WT synapses; format: cell-based, mouse; details: peptide 2.5 mM infused into WT BCs, before and 20 min after; n = 5-6

## CC[C@H](C)[C@H](NC(=O)[C@@H](NC(=O)[C@H](CO)NC(=O)[C@H](C)NC(=O)[C@H](CO)NC(=O)[C@H](CCCNC(=N)N)NC(=O)[C@H](CO)NC(=O)[C@H](CCCCN)NC(=O)[C@H](CCCCN)NC(=O)[C@H](CC(C)C)NC(=O)[C@H](CC(=O)O)NC(=O)[C@@H]1CCCN1C(=O)[C@H](COP(=O)(O)O)NC(=O)[C@H](COP(=O)(O)O)NC(=O)[C@@H]1CCCN1C(=O)[C@@H](NC(=O)[C@H](CCCCN)NC(=O)[C@@H]1CCCN1)[C@@H](C)CC)[C@@H](C)O)C(=O)N[C@@H](CO)C(=O)N[C@@H](CCCCN)C(=O)N[C@@H](CO)C(=O)N[C@@H](CC(=O)O)C(=O)O [PhosKv436-457] (H-PKIP[pS][pS]PDLKKSRSASTISKSD-OH)
[1]; model D1: dimer with one binding site, read-out: KD1, model D1
  Kd: 10.1 ± 4.4 µM
[1]; model D2i: dimer with two independent binding sites, read-out: KD1, model D2i
  Kd: 1.08 ± 0.26 µM

## CN1CCc2cc3c(cc2[C@H]1[C@@H]1OC(=O)c2c1ccc1c2OCO1)OCO3 [bicuculline]
[2]
  difference in PN firing rates between WT and KO: the differences in PN firing rates were abolished
[3]; 10 μM, holding −60 mV
  elimination of IPSC events: eliminated all the events

## CC[C@H](C)[C@H](NC(=O)[C@@H](NC(=O)[C@H](CO)NC(=O)[C@H](C)NC(=O)[C@H](CO)NC(=O)[C@H](CCCNC(=N)N)NC(=O)[C@H](CO)NC(=O)[C@H](CCCCN)NC(=O)[C@H](CCCCN)NC(=O)[C@H](CC(C)C)NC(=O)[C@H](CC(=O)O)NC(=O)[C@@H]1CCCN1C(=O)[C@H](CO)NC(=O)[C@H](COP(=O)(O)O)NC(=O)[C@@H]1CCCN1C(=O)[C@@H](NC(=O)[C@H](CCCCN)NC(=O)[C@@H]1CCCN1)[C@@H](C)CC)[C@@H](C)O)C(=O)N[C@@H](CO)C(=O)N[C@@H](CCCCN)C(=O)N[C@@H](CO)C(=O)N[C@@H](CC(=O)O)C(=O)O [pS440] (H-PKIP[pS]SPDLKKSRSASTISKSD-OH; N-terminus and C-terminus assumed)
[1]
  change of fluorescence emission spectrum of FMRP (binding): significant spectral changes; also recorded: phosphorylation-mediated interaction
  co-operativity of binding to dimeric FMRP: with cooperativity; also recorded: binds dimeric FMRP in a co-operative mechanism
  reduced χ2 of fit, model D1: 11.6
  χ2 of fit, model D1: 92.8
  reduced χ2 of fit, model D2i: 2.3
  χ2 of fit, model D2i: 16.4
[1]; model D2c
  enhancement of binding affinity of second ligand by binding of the first: ~ 80 fold
  reduced χ2 of fit, model D2c: 0.16
  χ2 of fit, model D2c: 0.99

## CC[C@H](C)[C@H](NC(=O)[C@@H](NC(=O)[C@H](CO)NC(=O)[C@H](C)NC(=O)[C@H](CO)NC(=O)[C@H](CCCNC(=N)N)NC(=O)[C@H](CO)NC(=O)[C@H](CCCCN)NC(=O)[C@H](CCCCN)NC(=O)[C@H](CC(C)C)NC(=O)[C@H](CC(=O)O)NC(=O)[C@@H]1CCCN1C(=O)[C@H](COP(=O)(O)O)NC(=O)[C@H](CO)NC(=O)[C@@H]1CCCN1C(=O)[C@@H](NC(=O)[C@H](CCCCN)NC(=O)[C@@H]1CCCN1)[C@@H](C)CC)[C@@H](C)O)C(=O)N[C@@H](CO)C(=O)N[C@@H](CCCCN)C(=O)N[C@@H](CO)C(=O)N[C@@H](CC(=O)O)C(=O)O [pS441] (H-PKIPS[pS]PDLKKSRSASTISKSD-OH; N-terminus and C-terminus assumed)
[1]
  change of fluorescence emission spectrum of FMRP (binding): significant spectral changes; also recorded: phosphorylation-mediated interaction
  co-operativity of binding to dimeric FMRP: without cooperativity; also recorded: did not produce co-operative binding effects
  reduced χ2 of fit, model D1: 10
  χ2 of fit, model D1: 106
  reduced χ2 of fit, model D2i: 11
  χ2 of fit, model D2i: 107
[1]; FMRP dimer models
  binding affinity relative to the other phospho-peptides: did bind with similar affinities
[1]; model D2c
  fit to D2c model: could not be fitted to the D2c model
[1]; models D1 and D2i versus KD1 of pS440 (D2c)
  KD tighter than the KD1 of pS440: ~ 5 fold
[1]; models D1 and D2i versus KD2 of pS440 (D2c)
  KD weaker than the KD2 of pS440: ~ 15 fold

## NC1=N[C@H](O)[C@H]2[C@H]3O[C@]4(O)O[C@@H]([C@@H](O)[C@@]2(N1)[C@@H]4O)[C@]3(O)CO [TTX, tetrodotoxin]
[3]
  amplitude and frequency of mIPSCs, WT versus KO: the amplitude and frequency of mIPSCs became indistinguishable between the two groups

## IKPSTLSDSRAKpSSDPpSKPSIK [scrambled]
[4]
  inhibition of Kv1.2–FMRP binding (co-IP): Neither the non-phosphorylated peptide with the identical sequence (Kv436-457, ^436PKIPSSPDLKKSRSASTISKSD^457) nor the doubly-phosphorylated scrambled peptide (IKPSTLSDSRAKpSSDPpSKPSIK) inhibited the Kv1.2–FMRP binding activity
BC–PN synapse, WT
  amplitude and frequency of sIPSCs: but not the non-phosphorylated or scrambled phosphorylated peptide, significantly elevated the amplitude and frequency of sIPSCs
[1]
  change of fluorescence emission spectrum of FMRP (binding): no change in the fluorescence emission spectrum of FMRP
[1]; listed as doubly-phosphorylated scrambled peptide
  change of fluorescence emission spectrum of FMRP (binding): no binding

— paper PMC7473840, “Identification of a molecular locus for normalizing dysregulated GABA release from interneurons in the Fragile X brain” (Molecular Psychiatry, 2018)
